Data published in patent US20200223826A1, “Glucose-6-Phosphate Dehydrogenase (G6PD)-Modulating Agents And Methods Of Treating G6PD Deficiency” (The Board of Trustees of the Leland Stanford Junior …, priority 2017, published 2020).

Assays:
WT G6PD = molecular target: T1, WT G6PD (Homo sapiens, UniProt P11413); experiment: WT G6PD enzyme activity, recombinant enzyme; type: biochemical
T1 construct: His (pET-28a) (N, cleaved yes); made in house; host or cells: E. coli C43 (DE3)
Experimental: Enzyme activity was measured by monitoring NADPH production, which was coupled with diaphorase converting resazurin to fluorescent resorufin (excitation at 565 nm and emission at 590 nm); fluorescent signal was thus proportional to G6PD activity. Assays were performed at 25° C. and run for 5 minutes in buffer containing 50 mM Tris (pH 7.4), 0.5 mM EDTA, 3.3 mM MgCl2, 1 U/ml diaphorase, 0.1 mM resazurin. 10 ng of recombinant enzymes or 10 μg of cell lysates was used for the assay with 10 μM NADP^+ (Sigma) as cofactor and 100 μM G6P (Sigma) as substrate. Steady-state kinetic parameters were obtained by varying concentrations of NADP^+ (0-10 μM) with a constant concentration of G6P (100 μM) and similarly for G6P (0-100 μM) with a constant concentration of NADP^+ (10 μM) with 10 ng of recombinant enzymes. Data analysis was performed using GraphPad Prism software v.6 (GraphPad Software, La Jolla, Calif. USA). Kinetic parameters were obtained by fitting the data to the Michaelis-Menten equation.

[1] = system: SH-SY5Y cells expressing the Canton variant; experiment: Viability of SH-SY5Y cells expressing Canton variant; type: cell-based, human
Experimental: Prior to the cellular-based assays using SH-SH5Y cells, duration of overexpression of WT G6PD and Canton variant was examined by transfecting the cells seeded in a 12-well plate. The genes encoding human WT G6PD and Canton variant were first PCR-amplified, which was then inserted into pcDNA 3.1/myc-His C (ThermoFisher Scientific) using HindIII and XhoI. 0.5 μg of cDNA and 1.5 μg of lipofectamine (Invitrogen) were diluted in 50 μL of Opti-MEM medium respectively and incubated for 5 minutes. The diluted DNA was combined with diluted lipofectamine, which was followed by incubation for 20 minutes prior to the addition to cells.
Cell viability was measured using a Cell-Counting Kit-8 (CCK-8, Dojindo), utilizing WST-8 [2-(2-methoxy-4-nitrophenyl)-3-(4-nitrophenyl)-5-(2,4-disulfophenyl)-2H-tetrazolium monosodium salt, according to the manufacturer's instructions. Cells were subjected to serum starvation for 48 hours before measurement. Cells in 100 μL of medium per well were treated with 10 μL of CCK-8 solution and incubated for 2 hours at 37° C. The absorbance was read at 450 nm. Viability of lymphocytes was measured by staining with a 0.4% solution of trypan blue in buffered isotonic salt solution (pH 7.2). The viability was calculated as the number of viable cells (non-stained by the dye) divided by the total number of cells within the grids on the hemacytometer. […]

T1 sequence (P11413 whole entry): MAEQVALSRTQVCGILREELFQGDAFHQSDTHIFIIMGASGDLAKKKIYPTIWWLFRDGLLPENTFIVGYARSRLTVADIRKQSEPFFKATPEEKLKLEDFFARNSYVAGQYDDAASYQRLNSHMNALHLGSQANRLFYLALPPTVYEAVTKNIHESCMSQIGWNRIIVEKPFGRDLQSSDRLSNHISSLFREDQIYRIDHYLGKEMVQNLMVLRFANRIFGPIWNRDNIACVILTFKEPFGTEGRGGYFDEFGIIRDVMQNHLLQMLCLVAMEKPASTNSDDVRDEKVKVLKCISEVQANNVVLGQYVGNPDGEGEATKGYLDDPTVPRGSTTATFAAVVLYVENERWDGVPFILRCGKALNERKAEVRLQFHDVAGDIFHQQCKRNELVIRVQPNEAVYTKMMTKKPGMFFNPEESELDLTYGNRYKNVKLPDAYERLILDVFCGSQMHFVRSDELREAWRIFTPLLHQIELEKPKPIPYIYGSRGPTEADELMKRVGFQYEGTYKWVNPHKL

SCCNCCc1c[nH]c2ccccc12 [AG1, 2-[2-(1H-indol-3-yl)ethylamino]ethanethiol]
increase of WT G6PD activity over basal activity (WT G6PD): about 20%
viability [1]: mild increase
